Assay results taken from patent publication US12624034B2, “Non-covalent modifiers of AKT1 and uses thereof” (Terremoto Biosciences, Inc., priority 2023, dated 2026).
pIC50: −log10 of the molar value. Like-named read-outs stand apart in the source and are kept apart here.

How the values were obtained:
AKT1 WT = target: T1, AKT1 WT (Homo sapiens, UniProt P31749); assay: Live cell AKT1 WT target engagement by NanoBRET competitive probe displacement in HEK293 cells; type: binding; conditions: 2 h at 37° C., read-out: AKT1 WT IC50
T1 construct: expressed in transfected cells; host or cells: HEK293

AKT2 = target: T2, AKT2 (Homo sapiens, UniProt P31751); assay: Live cell AKT2 target engagement by NanoBRET competitive probe displacement in HEK293 cells; type: binding; conditions: 2 h at 37° C., read-out: AKT2 IC50
T2 construct: expressed in transfected cells; host or cells: HEK293

[1] = NanoBRET live cell target engagement, HEK293 cells
[2] = NanoBRET competitive probe displacement, live HEK293 cells

T2 sequence (P31751 whole entry): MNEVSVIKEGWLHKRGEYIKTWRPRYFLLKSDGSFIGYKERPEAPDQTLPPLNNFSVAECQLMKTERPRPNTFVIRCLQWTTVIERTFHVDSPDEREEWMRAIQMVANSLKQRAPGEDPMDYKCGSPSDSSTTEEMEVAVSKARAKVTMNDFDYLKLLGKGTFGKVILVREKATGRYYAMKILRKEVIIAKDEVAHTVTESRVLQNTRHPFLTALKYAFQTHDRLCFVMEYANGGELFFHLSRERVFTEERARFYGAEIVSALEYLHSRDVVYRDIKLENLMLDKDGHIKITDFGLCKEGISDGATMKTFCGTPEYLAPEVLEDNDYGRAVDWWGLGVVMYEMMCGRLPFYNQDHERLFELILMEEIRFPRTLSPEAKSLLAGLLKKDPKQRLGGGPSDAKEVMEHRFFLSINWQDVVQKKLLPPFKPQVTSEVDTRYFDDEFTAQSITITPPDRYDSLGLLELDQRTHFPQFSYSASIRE
T1 sequence (P31749 whole entry): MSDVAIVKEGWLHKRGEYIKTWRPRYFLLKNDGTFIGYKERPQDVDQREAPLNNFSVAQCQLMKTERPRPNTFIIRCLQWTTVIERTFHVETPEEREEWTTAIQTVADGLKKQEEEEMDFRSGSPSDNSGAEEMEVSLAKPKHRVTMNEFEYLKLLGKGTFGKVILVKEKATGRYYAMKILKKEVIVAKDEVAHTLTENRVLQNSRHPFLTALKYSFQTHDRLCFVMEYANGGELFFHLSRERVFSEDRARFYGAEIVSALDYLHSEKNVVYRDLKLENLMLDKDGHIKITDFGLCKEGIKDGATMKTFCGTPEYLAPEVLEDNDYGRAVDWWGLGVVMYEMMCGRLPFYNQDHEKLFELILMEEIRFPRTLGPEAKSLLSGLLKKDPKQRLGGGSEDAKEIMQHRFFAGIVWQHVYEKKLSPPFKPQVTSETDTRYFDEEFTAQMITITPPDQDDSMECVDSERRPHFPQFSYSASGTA

SMILES | pIC50 (AKT1 WT; [1]) | pIC50 (AKT2; [1]) | pIC50 (AKT1 WT; [2]) | pIC50 (AKT2; [2])
COc1cc(C(=O)N[C@H]2CCc3cc(-n4c(-c5cccnc5N)nc5ccc(-n6cccn6)nc54)ccc32)nn1C [Compound 216] | 7.23 | 5.86 |  | 
CS(=O)(=O)Nc1ccc(C(=O)N[C@H]2CCc3cc(-n4c(-c5cccnc5N)nc5ccc(-n6cccn6)nc54)ccc32)cc1 [Compound 195] | 7.91 | 7.31 |  | 
Cc1ncccc1C(=O)N[C@@H]1c2ccc(-n3c(-c4cccnc4N)nc4ccc(-n5cccn5)nc43)cc2CC1F (stereo partly drawn) [Compound 148] | 7.78 | 6.97 |  | 
Cc1cnc(C(=O)N[C@H]2CCc3cc(-n4c(-c5cccnc5N)nc5ccc(-n6cccn6)nc54)ccc32)c(C)n1 [Compound 207] | 6.82 | 5.60 |  | 
CN(C)Cc1cn([C@H]2CCc3cc(-n4c(-c5cccnc5N)nc5ccc(-n6cccn6)nc54)ccc32)nn1 [Compound 218] | 6.19 | 5.36 |  | 
Nc1ncccc1-c1nc2ccc(-n3cccn3)nc2n1-c1ccc2c(c1)CC[C@@H]2NC(=O)N1CCOCC1 [Compound 27, (S)—N-(5-(2-(2-aminopyridin-3-yl)-5-(1H-pyrazol-1-yl)-3H-imidazo[4,5-b]pyridin-3-yl)-2,3-dihydro-1H-inden-1-yl)morpholine-4-carboxamide] | < 6.00 | < 5.00 |  | 
Nc1ncccc1-c1nc2ccc(-n3cccn3)nc2n1-c1ccc2c(c1)CC[C@@H]2NC(=O)c1cc2n(n1)CCC2 [Compound 173] | 7.52 | 6.65 |  | 
Cc1nccnc1C(=O)N[C@H]1CCc2cc(-n3c(-c4cccnc4N)nc4ccc(-c5ncco5)nc43)ccc21 [Compound 270] | 6.27 | < 5.00 |  | 
Nc1ncccc1-c1nc2ccc(C#CC3CCC3)nc2n1-c1ccc2c(c1)CC[C@@H]2NC(=O)c1ccc(C(F)F)nc1 [Compound 226] | 7.34 | 5.69 |  | 
Nc1ncccc1-c1nc2ccc(-n3cccn3)nc2n1-c1ccc2c(c1)CC[C@@H]2NC(=O)c1ccnc(OC2CC2)c1 [Compound 201] | 8.03 | 7.18 |  | 
Cc1nnc(C)n1[C@H]1CCc2cc(-n3c(-c4cccnc4N)nc4ccc(-n5cccn5)nc43)ccc21 [Compound 272, (S)-3-(3-(1-(3,5-dimethyl-4H-1,2,4-triazol-4-yl)-2,3-dihydro-1H-inden-5-yl)-5-(1H-pyrazol-1-yl)-3H-imidazo[4,5-b]pyridin-2-yl)pyridin-2-amine] | 7.41 | 6.22 |  | 
Cc1ccc(CN[C@H]2CCc3cc(-n4c(-c5cccnc5N)nc5ccc(-n6cccn6)nc54)ccc32)cn1 [Compound 70] | 7.31 | 6.24 |  | 
Nc1ncccc1-c1nc2ccc(-n3cccn3)nc2n1-c1ccc2c(c1)CC[C@@H]2NC(=O)c1ccc2[nH]c(=O)sc2c1 [Compound 233] | 7.91 | 7.62 |  | 
Cc1ccc(C(=O)N[C@H]2CCc3cc(-n4c(-c5cccnc5N)nc5ccc(-n6cccn6)nc54)ccc32)c(C)n1 [Compound 69] | 7.96 | 7.15 |  | 
Cc1ncc(C(=O)N[C@H]2CCc3cc(-n4c(-c5cccnc5N)nc5ccc(-n6cccn6)nc54)ccc32)c(C)n1 [Compound 96] | 7.73 | 7.02 |  | 
Cc1ccc(C(=O)N[C@H]2CCc3cc(-n4c(-c5cccnc5N)nc5ccc(-c6cnn(C)n6)nc54)ccc32)cn1 [Compound 268] | 8.10 | 7.00 |  | 
Nc1ncccc1-c1nc2ccc(-n3cccn3)nc2n1-c1ccc2c(c1)CC[C@@H]2NC(=O)c1cc2ncccn2n1 [Compound 176] | 7.61 | 6.50 |  | 
Nc1ncccc1-c1nc2ccc(-n3cccn3)nc2n1-c1ccc2c(c1)CC[C@@H]2NC(=O)c1cccnc1C(F)(F)F [Compound 110] | 7.34 | 6.02 |  | 
CN(C)Cc1cc(C(=O)N[C@H]2CCc3cc(-n4c(-c5cccnc5N)nc5ccc(-n6cccn6)nc54)ccc32)ccn1 [Compound 205] | 6.77 | 5.63 |  | 
Nc1ncccc1-c1nc2ccc(-n3cccn3)nc2n1-c1ccc2c(c1)CC[C@H]2n1ccnn1 [Compound 227] | < 6.00 | < 5.00 |  | 
Nc1ncccc1-c1nc2ccc(-n3cccn3)nc2n1-c1ccc2c(c1)CC[C@@H]2NC(=O)c1cnc2ccnn2c1 [Compound 238] | 8.04 | 7.24 |  | 
Nc1ncccc1-c1nc2ccc(-n3cccn3)nc2n1-c1ccc2c(c1)CC(F)[C@@H]2NC1CN(c2ccccn2)C1 (stereo partly drawn) [Compound 208] | 7.49 | 5.99 |  | 
Nc1ncccc1-c1nc2ccc(-n3cccn3)nc2n1-c1ccc2c(c1)CC[C@@H]2NC(=O)c1cnc2c(c1)CCC2(F)F [Compound 66] | 8.05 | 7.82 |  | 
Nc1ncccc1-c1nc2ccc(-n3nccn3)nc2n1-c1ccc2c(c1)CC[C@@H]2NC(=O)c1cccnc1C(F)F [Compound 107] | 6.93 | < 5.00 |  | 
Cc1cc(C(=O)N[C@H]2CCc3cc(-n4c(-c5cccnc5N)nc5ccc(-n6cccn6)nc54)ccc32)nn1C(F)F [Compound 166] | 7.52 | 6.16 |  | 

Now from value to molecule:

pIC50 (AKT1 WT; [1]) | pIC50 (AKT2; [1]) | pIC50 (AKT1 WT; [2]) | pIC50 (AKT2; [2]) | SMILES
 |  | 6.60 | 5.60 | Nc1ncccc1-c1nc2ccc(-n3ccc(OC(F)F)n3)nc2n1-c1ccc2c(c1)CC[C@@H]2NC1[C@@H]2COC[C@H]1CN(C(=O)C1CC1)C2 (stereo partly drawn) [Compound 560]
6.28 | 5.16 |  |  | CC(=O)NCC#Cc1ccc2nc(-c3cccnc3N)n(-c3ccc4c(c3)CC[C@@H]4NC(=O)c3ccc(C)nc3)c2n1 [Compound 327]
8.09 | 6.82 |  |  | Nc1ncccc1-c1nc2ccc(-n3cccn3)nc2n1-c1ccc2c(c1)CC[C@@H]2NC(=O)c1cnc(C(F)F)s1 [Compound 376]
 |  | 7.03 | 5.51 | Nc1ncccc1-c1nc2ccc(-n3ccc(OC(F)F)n3)nc2n1-c1ccc2c(c1)CC[C@@H]2NC1[C@@H]2COC[C@H]1CN(C(=O)C1CC1)C2 (stereo partly drawn) [Compound 561]
 |  | 7.55 | 5.97 | Nc1ncccc1-c1nc2ccc(-n3cccn3)nc2n1-c1ccc2c(c1)CC[C@@H]2NC1CCc2ccncc21 (single isomer, unassigned) [Example 496, (R*)—N—((S)-5-(2-(2-aminopyridin-3-yl)-5-(1H-pyrazol-1-yl)-3H-imidazo[4,5-b]pyridin-3-yl)-2,3-dihydro-1H-inden-1-yl)-6,7-dihydro-5H-cyclopenta[c]pyridin-7-amine]
 |  | 7.41 | 6.29 | Nc1ncccc1-c1nc2ccc(-n3ccc(OC(F)F)n3)nc2n1-c1ccc2c(c1)CC[C@@H]2NC(=O)c1cnc(C(F)F)s1 [Compound 534]
 |  | 8.01 | 6.66 | COC1CCN(c2ccn(-c3ccc4nc(-c5cccnc5N)n(-c5ccc6c(c5)CC(F)[C@@H]6NC5CCN(C(=O)C6CC6)CC5)c4n3)n2)CC1 (stereo partly drawn) [Compound 546]
7.72 | 6.72 |  |  | Nc1ccc(C(=O)N[C@H]2CCc3cc(-n4c(-c5cccnc5N)nc5ccc(-n6cccn6)nc54)ccc32)cn1 [Compound 311]
 |  | 7.89 | 6.16 | Cn1ccc(N2CCC(N[C@H]3CCc4cc(-n5c(-c6cccnc6N)nc6ccc(-n7ccc(N8CCC8)n7)nc65)ccc43)CC2)n1 [Compound 596]
 |  | 7.68 | 6.14 | COc1cccc(-c2ccc3nc(-c4cccnc4N)n(-c4ccc5c(c4)CC(F)[C@@H]5NC4CCN(C(=O)C5CC5)CC4)c3n2)n1 (stereo partly drawn) [Compound 545]
 |  | 7.58 | 6.25 | CN(C)C(=O)c1cc(C(=O)N[C@H]2CCc3cc(-n4c(-c5cccnc5N)nc5ccc(-n6cccn6)nc54)ccc32)ccc1O [Compound 414]
 |  | 8.25 | 6.57 | COc1csc(-c2ccc3nc(-c4cccnc4N)n(-c4ccc5c(c4)CC(F)[C@@H]5NC4CCN(C(=O)C5CC5)CC4)c3n2)n1 (stereo partly drawn) [Compound 559]
 |  | 7.03 | 5.55 | CN(CCC1CC1)[C@H]1CCc2cc(-n3c(-c4cccnc4N)nc4ccc(-n5cccn5)nc43)ccc21 [Compound 458]
 |  | 6.96 | 5.51 | Nc1ncccc1-c1nc2ccc(-n3cccn3)nc2n1-c1ccc2c(c1)CC[C@@H]2NC1CCN(C(=O)[C@H]2CCO2)CC1 [Compound 425]
 |  | 6.63 | 5.17 | COCCN(C)[C@H]1CCc2cc(-n3c(-c4cccnc4N)nc4ccc(-n5cccn5)nc43)ccc21 [Compound 457]
 |  | 8.74 | 7.42 | CN1CCN(c2ccn(-c3ccc4nc(-c5cccnc5N)n(-c5ccc6c(c5)CC[C@@H]6NC5CCN(C(=O)C6CC6)CC5)c4n3)n2)CC1 [Compound 563]
 |  | 7.62 | 5.67 | Cc1ncc(C(=O)N[C@H]2CCc3cc(-n4c(-c5cccnc5N)nc5ccc(-n6nccn6)nc54)ccc32)s1 [Compound 492]
7.24 | 5.59 |  |  | COc1cncc(C(=O)N[C@H]2CCc3cc(-n4c(-c5cccnc5N)nc5ccc(-n6cccn6)nc54)ccc32)n1 [Compound 348]
 |  | 7.77 | 6.19 | CN(C)c1ccn(-c2ccc3nc(-c4cccnc4N)n(-c4ccc5c(c4)CC[C@@H]5NC4CCN(c5ccn(C)n5)CC4)c3n2)n1 [Compound 589]
 |  | 7.82 | 6.28 | Nc1ncccc1-c1nc2ccc(-n3ncc(OC(F)F)n3)nc2n1-c1ccc2c(c1)CC[C@@H]2NC(=O)c1cnc(C(F)F)s1 [Compound 595]
 |  | 7.50 | 6.01 | Nc1ncccc1-c1nc2ccc(-n3ccc(OC4CCOCC4)n3)nc2n1-c1ccc2c(c1)CC[C@@H]2NC1CCN(C(=O)C2CC2)CC1 [Compound 517]
 |  | 7.54 | 6.03 | COc1nccc2c1CCC2N[C@H]1CCc2cc(-n3c(-c4cccnc4N)nc4ccc(-n5cccn5)nc43)ccc21 (stereo partly drawn) [Compound 509]
 |  | 7.56 | 5.57 | COc1cnn(-c2ccc3nc(-c4cccnc4N)n(-c4ccc5c(c4)CC[C@@H]5NC(=O)c4cnc(C(F)F)s4)c3n2)n1 [Compound 594]
